Measured values from patent US8859534B2, “2-carboxamide-7-piperazinyl-benzofuran derivatives” (AstraZeneca AB, priority 2009, dated 2014).

Tests used:
5-HT1B receptor = 5-HT1B receptor (Homo sapiens (Human), UniProt P28222); assay: 5-HT1B receptor competition binding assay (SPA, [3H]-GR125743); conditions: membranes of CHO cells expressing 5-HT1B receptors; radioligand [3H]-GR125743 0.15-0.2 nM
Source text: (§1) Assays that were used to measure affinity of the compounds of the present invention for 5-HT1A and 5-HT1B receptors are described in J. Recept Signal Transduct. Res. 22:483-495 (2002) and Naunyn-Schmiedeberg's Arch Pharmacol. 356:328-334 (1997) and incorporated by reference herein. These assays were be used with some modifications:
(§2) For the binding assay stably transfected chinese hamster ovary (CHO) cell lines expressing 5-HT1A receptors or 5-HT1B receptors were harvested by centrifugation at 300×g for 10 min and resuspended in 10 mM Tris-HCl, 5 mM EDTA at pH 7.4. The cells were pooled, recentrifuged and resuspended before homogenisation using a Dounce homogeniser (“type B”). Cell membranes were centrifuged at 48 000×g for 10 min and then resuspended in harvesting buffer using an Ultra-Turrax T8 (IKA Labortechnik, Germany), aliquots were stored frozen in −70° C.
Frozen membrane preparations were thawed, homogenized with an Ultra-Turrax and mixed with SPA beads (YSI coated WGA, GE Healthcare/Amersham, Buckinghamshire, UK) in assay buffer containing 50 mM Tris-Base, 4 mM MgCl2, 4 mM CaCl2 (only 5-HT1B), 1 mM EDTA, and adjusted to pH 7.4 with HCl. The beads/membrane solution, final concentration 100 pM receptors for 5-HT1A, 300 pM receptors for 5-HT1B and 0.5 mg SPA beads/well, was pre-incubated in room temperature with stirring for 30-60 min. […] Five (log interval, 10 μM to 1 nM, final concentration) or ten serial dilutions (½-log interval, 10 μM to 0.32 nM, final concentration) of compounds were prepared in DMSO from 10 mM stock solutions. The binding assays were performed in 384-well plates in a final volume of 90 μL/well with the following additions: 9 μL binding buffer; 1 μL compound/DMSO/nonspecific; 20 μL radioligand; and 60 μL beads/membrane mixture. Non-specific binding was defined by using 10 μM WAY100635 for 5-HT1A and 10 μM Methiothepin for 5-HT1B. The assay plates were incubated for 4 hours where after the plates are counted in a Wallac 1450 Microbeta Trilux counter (PerkinElmer LifeScience, US) or similar. Data from the experiments were analyzed using a four parameter logistic equation as follows: Y=Bottom+(Top-Bottom)/1+10^(LogEC50-X)nH.
• Jerning E., Rosqvist S., Mohell N. (2002) NAD-299 antagonises 5-HT-stimulated and Spiperone-inhibited [^35S]GTPγS binding in cloned 5-HT1A receptors. J Recept Signal Transduct Res 22:483-495. • Doménech T., Beleta J., Palacios J. M. (1997) Characterization of human serotonin 1D and 1B receptors using [^3H]-GR-125743, a novel radiolabelled serotonin 5HT1D/1B receptor antagonist. Naunyn-Schmiedeberg's Arch Pharmacol 356:328-334.

5-HT1A receptor = 5-HT1A receptor (Homo sapiens (Human), UniProt P08908); assay: 5-HT1A receptor competition binding assay (SPA, [3H]-8-OH-DPAT); conditions: membranes of CHO cells expressing 5-HT1A receptors; radioligand [3H]-8-OH-DPAT 0.15-0.2 nM
Source text: as §1, §2
Frozen membrane preparations were thawed, homogenized with an Ultra-Turrax and mixed with SPA beads (YSI coated WGA, GE Healthcare/Amersham, Buckinghamshire, UK) in assay buffer containing 50 mM Tris-Base, 4 mM MgCl2, 4 mM CaCl2 (only 5-HT1B), 1 mM EDTA, and adjusted to pH 7.4 with HCl. […] The binding assays were performed in 384-well plates in a final volume of 90 μL/well with the following additions: 9 μL binding buffer; 1 μL compound/DMSO/nonspecific; 20 μL radioligand; and 60 μL beads/membrane mixture. Non-specific binding was defined by using 10 μM WAY100635 for 5-HT1A and 10 μM Methiothepin for 5-HT1B. The assay plates were incubated for 4 hours where after the plates are counted in a Wallac 1450 Microbeta Trilux counter (PerkinElmer LifeScience, US) or similar. Data from the experiments were analyzed using a four parameter logistic equation as follows: Y=Bottom+(Top-Bottom)/1+10^(LogEC50-X)nH.

Sequence of 5-HT1A receptor (P08908 whole entry): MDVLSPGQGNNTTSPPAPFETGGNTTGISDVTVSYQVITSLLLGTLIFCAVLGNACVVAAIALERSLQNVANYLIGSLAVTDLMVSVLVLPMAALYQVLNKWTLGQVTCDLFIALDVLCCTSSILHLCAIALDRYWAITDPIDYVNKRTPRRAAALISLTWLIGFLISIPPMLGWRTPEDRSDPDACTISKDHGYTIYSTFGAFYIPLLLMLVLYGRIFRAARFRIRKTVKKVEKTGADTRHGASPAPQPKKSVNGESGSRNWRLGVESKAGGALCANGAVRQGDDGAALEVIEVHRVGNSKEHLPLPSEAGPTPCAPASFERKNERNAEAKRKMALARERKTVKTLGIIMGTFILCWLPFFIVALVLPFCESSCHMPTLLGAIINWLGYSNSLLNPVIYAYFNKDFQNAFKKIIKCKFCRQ
Sequence of 5-HT1B receptor (P28222 whole entry): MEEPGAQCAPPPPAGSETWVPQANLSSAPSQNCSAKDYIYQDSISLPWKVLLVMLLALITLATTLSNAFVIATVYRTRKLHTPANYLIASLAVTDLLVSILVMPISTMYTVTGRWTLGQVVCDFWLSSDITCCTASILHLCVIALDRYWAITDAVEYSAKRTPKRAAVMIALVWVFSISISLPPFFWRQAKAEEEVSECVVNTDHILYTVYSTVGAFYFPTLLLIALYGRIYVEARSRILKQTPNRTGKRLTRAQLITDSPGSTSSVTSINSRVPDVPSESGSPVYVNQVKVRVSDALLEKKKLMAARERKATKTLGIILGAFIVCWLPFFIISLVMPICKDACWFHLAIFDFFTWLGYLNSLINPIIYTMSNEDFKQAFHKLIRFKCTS

| SMILES | Ki (5-HT1B receptor) [nM] | Ki (5-HT1A receptor) [nM] |
| --- | --- | --- |
| O=C(c1cc2cccc(N3CCN(CCc4ccccn4)CC3)c2o1)N1CCN(c2nccs2)CC1 [Example 23, (7-(4-(2-(Pyridin-2-yl)ethyl)piperazin-1-yl)benzofuran-2-yl)(4-(thiazol-2-yl)piperazin-1-yl)methanone] | 1.4 | 4.2 |
| O=C(c1cc2cccc(N3CCN(CCc4ccccn4)CC3)c2o1)N1CC(Oc2cccnc2)C1 [Example 36, (7-(4-(2-(Pyridin-2-yl)ethyl)piperazin-1-yl)benzofuran-2-yl)(3-(pyridin-3-yloxy)azetidin-1-yl)methanone] | 0.46 | 1.9 |
| CC(=O)N1CCc2cc(CCN3CCN(c4cccc5cc(C(=O)N(C)C)oc45)CC3)ccc21 [Example 38, 7-(4-(2-(1-Acetylindolin-5-yl)ethyl)piperazin-1-yl)-N,N-dimethylbenzofuran-2-carboxamide] | 1.6 | 0.064 |
| CN(C)C(=O)c1cc2cccc(N3CCN(CCc4cccc(C(F)(F)F)n4)CC3)c2o1 [Example 42, N,N-dimethyl-7-(4-(2-(6-(trifluoromethyl)pyridin-2-yl)ethyl)piperazin-1-yl)benzofuran-2-carboxamide] | 7 | 0.64 |
| CC(=O)c1ccc(CCN2CCN(c3cccc4cc(C(=O)N(C)C)oc34)CC2)nc1 [Example 43, 7-(4-(2-(5-Acetylpyridin-2-yl)ethyl)piperazin-1-yl)-N,N-dimethylbenzofuran-2-carboxamide] | 2 | 0.33 |
| CC(=O)Nc1ccc(CCN2CCN(c3cccc4cc(C(=O)N(C)C)oc34)CC2)nc1 [Example 44, 7-(4-(2-(5-Acetamidopyridin-2-yl)ethyl)piperazin-1-yl)-N,N-dimethylbenzofuran-2-carboxamide] | 20 | 3.7 |
| COc1cccc(CCN2CCN(c3cccc4cc(C(=O)N(C)C)oc34)CC2)n1 [Example 46, 7-(4-(2-(6-Methoxypyridin-2-yl)ethyl)piperazin-1-yl)-N,N-dimethylbenzofuran-2-carboxamide] | 1.4 | 1.3 |
| CN(C)C(=O)c1cc2cccc(N3CCN(CCc4ccc(F)cn4)CC3)c2o1 [Example 47, 7-(4-(2-(5-Fluoropyridin-2-yl)ethyl)piperazin-1-yl)-N,N-dimethylbenzofuran-2-carboxamide] | 19 | 0.22 |
| CN(C)C(=O)c1cc2cc(F)cc(N3CCN(CCc4ccccn4)CC3)c2o1 [Example 50, 5-Fluoro-N,N-dimethyl-7-(4-(2-(pyridin-2-yl)ethyl)piperazin-1-yl)benzofuran-2-carboxamide] | 8.2 | 0.43 |
| CC(=O)N1CCc2cc(CCN3CCN(c4cc(F)cc5cc(C(=O)N(C)C)oc45)CC3)ccc21 [Example 51, 7-(4-(2-(1-Acetylindolin-5-yl)ethyl)piperazin-1-yl)-5-fluoro-N,N-dimethylbenzofuran-2-carboxamide] | 5 | 0.23 |
| COc1cc(N2CCN(CCc3ccccn3)CC2)c2oc(C(=O)N(C)C)cc2c1 [Example 52, 5-Methoxy-N,N-dimethyl-7-(4-(2-(pyridin-2-yl)ethyl)piperazin-1-yl)benzofuran-2-carboxamide] | 140 | 2.8 |

Further lines, results first:

| Ki (5-HT1B receptor) [nM] | Ki (5-HT1A receptor) [nM] | SMILES |
| --- | --- | --- |
| 9.1 | 0.91 | N#Cc1cccc(CNC(=O)c2cc3cccc(N4CCN(CCc5ccccn5)CC4)c3o2)c1 [Example 22, N-(3-Cyanobenzyl)-7-(4-(2-(pyridin-2-yl)ethyl)piperazin-1-yl)benzofuran-2-carboxamide] |
| 0.56 | 0.42 | COc1cccnc1N1CCC(NC(=O)c2cc3cccc(N4CCN(CCc5ccccn5)CC4)c3o2)CC1 [Example 24, N-(1-(3-Methoxypyridin-2-yl)piperidin-4-yl)-7-(4-(2-(pyridin-2-yl)ethyl)piperazin-1-yl)benzofuran-2-carboxamide] |
| 31 | 2.9 | CN(Cc1ccccn1)C(=O)c1cc2cccc(N3CCN(CCc4ccccn4)CC3)c2o1 [Example 25, N-Methyl-7-(4-(2-(pyridin-2-yl)ethyl)piperazin-1-yl)-N-(pyridin-2-ylmethyl)benzofuran-2-carboxamide] |
| 2.3 | 0.91 | COc1cccc(CNC(=O)c2cc3cccc(N4CCN(CCc5ccccn5)CC4)c3o2)c1 [Example 26, N-(3-Methoxybenzyl)-7-(4-(2-(pyridin-2-yl)ethyl)piperazin-1-yl)benzofuran-2-carboxamide] |
| 35 | 2.3 | O=C(NC1(c2ccccn2)CC1)c1cc2cccc(N3CCN(CCc4ccccn4)CC3)c2o1 [Example 27, N-(1-(Pyridin-2-yl)cyclopropyl)-7-(4-(2-(pyridin-2-yl)ethyl)piperazin-1-yl)benzofuran-2-carboxamide] |
| 1 | 0.85 | COc1ccc(CNC(=O)c2cc3cccc(N4CCN(CCc5ccccn5)CC4)c3o2)cc1 [Example 28, N-(4-Methoxybenzyl)-7-(4-(2-(pyridin-2-yl)ethyl)piperazin-1-yl)benzofuran-2-carboxamide] |
| 19 | 2 | Cc1ccnc(CCNC(=O)c2cc3cccc(N4CCN(CCc5ccccn5)CC4)c3o2)n1 [Example 29, N-(2-(4-Methylpyrimidin-2-yl)ethyl)-7-(4-(2-(pyridin-2-yl)ethyl)piperazin-1-yl)benzofuran-2-carboxamide] |
| 50 | 1.5 | O=C(NCC1CCOCC1)c1cc2cccc(N3CCN(CCc4ccccn4)CC3)c2o1 [Example 31, 7-(4-(2-(Pyridin-2-yl)ethyl)piperazin-1-yl)-N-((tetrahydro-2H-pyran-4-yl)methyl)benzofuran-2-carboxamide] |
| 280 | 12 | CC(NC(=O)c1cc2cccc(N3CCN(CCc4ccccn4)CC3)c2o1)c1ccnn1C (centres unmarked) [Example 32, N-(1-(1-Methyl-1H-pyrazol-5-yl)ethyl)-7-(4-(2-(pyridin-2-yl)ethyl)piperazin-1-yl)benzofuran-2-carboxamide] |
| 44 | 2.1 | Cc1ccc(C(C)NC(=O)c2cc3cccc(N4CCN(CCc5ccccn5)CC4)c3o2)cn1 (centres unmarked) [Example 33, N-(1-(6-Methylpyridin-3-yl)ethyl)-7-(4-(2-(pyridin-2-yl)ethyl)piperazin-1-yl)benzofuran-2-carboxamide] |
| 38 | 3.8 | Cc1ncc(CNC(=O)c2cc3cccc(N4CCN(CCc5ccccn5)CC4)c3o2)cn1 [Example 34, N-((2-Methylpyrimidin-5-yl)methyl)-7-(4-(2-(pyridin-2-yl)ethyl)piperazin-1-yl)benzofuran-2-carboxamide] |
| 34 | 2 | O=C(NCc1cccnc1)c1cc2cccc(N3CCN(CCc4ccccn4)CC3)c2o1 [Example 35, 7-(4-(2-(Pyridin-2-yl)ethyl)piperazin-1-yl)-N-(pyridin-3-ylmethyl)benzofuran-2-carboxamide] |
| 3.5 | 0.23 | O=C(NCc1cccc(O)c1)c1cc2cccc(N3CCN(CCc4ccccn4)CC3)c2o1 [Example 37, N-(3-Hydroxybenzyl)-7-(4-(2-(pyridin-2-yl)ethyl)piperazin-1-yl)benzofuran-2-carboxamide] |
| 1.3 | 0.14 | Cc1ccc(CCN2CCN(c3cccc4cc(C(=O)N(C)C)oc34)CC2)nc1 [Example 40, N,N-dimethyl-7-(4-(2-(5-methylpyridin-2-yl)ethyl)piperazin-1-yl)benzofuran-2-carboxamide] |
